These results are taken from patent publication US8735398B2 (Bristol-Myers Squibb Company, priority 2009, dated 2014).

Read-outs that look alike come from different tables or passages of the source. A value given as a limit tells only on which side of the number the result lay.

The subject of the assay is HCV 1b genotype. Briefly: HCV replicon assay (HCV-neo replicon cells, wild-type). It is filed as cell-based, Hepatitis C virus. As to conditions: Hepatitis C virus, HCV 1b genotype replicon. In outline: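 HCV-neo replicon cells (wild-type) and replicon cells carrying NS5A resistance substitutions were treated with compounds; assay per O'Boyle et al. 2005, with luciferase-reporter read-out variants also used.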
In general terms: Replicon systems follow genome replication, usually without infectious particles.

Where [1] appears, read: class symbol, read-out: EC50 Range against HCV 1b.

As usually defined, the EC50 is the concentration needed to bring the measured effect to its halfway point.

`O=C(Nc1ccc(-c2cc(-c3ccc(NC(=O)[C@@H]4CCCN4C(=O)OCc4ccccc4)cc3)[nH]n2)cc1)[C@@H]1CCCN1C(=O)OCc1ccccc1` [OL-26, (2S,2′S)-2,2′-[1H-pyrazole-3,5-diylbis(4,1-phenyleneiminocarbonyl)]bis-1-pyrrolidinecarboxylic acid, bis(phenylmethyl) ester]: under setting [1], the concentration giving a half-maximal response (EC50) is 4.57 to 99 nM. For the compound `O=C(Nc1ccc(-c2cc(-c3ccc(NC(=O)[C@@H]4CCCN4C(=O)Cc4ccccc4)cc3)[nH]n2)cc1)[C@@H]1CCCN1C(=O)Cc1ccccc1` [OL-27, (2S,2′S)-N,N′-(1H-pyrazole-3,5-diyldi-4,1-phenylene)bis[1-(phenylacetyl)-2-pyrrolidinecarboxamide]], the EC50 was 4.57 to 99 nM under setting [1] and 10 nM (read-out: EC50 1b).

As to `O=C(Nc1ccc(-c2cc(-c3ccc(NC(=O)[C@@H]4C[C@@H](O)CN4C(=O)Cc4ccccc4)cc3)[nH]n2)cc1)[C@@H]1C[C@@H](O)CN1C(=O)Cc1ccccc1` [OL-28, (2S,4R,2′S,4′R)-N,N′-(1H-pyrazole-3,5-diyldi-4,1-phenylene)bis(4-hydroxy-1-(phenylacetyl)-2-pyrrolidinecarboxamide)], under setting [1], the EC50 was 4.57 to 99 nM. On to `CC(=O)N1CCC[C@H]1C(=O)Nc1ccc(-c2cc(-c3ccc(NC(=O)[C@@H]4CCCN4C(C)=O)cc3)[nH]n2)cc1` [OL-29, (2S,2′S)-N,N′-(1H-pyrazole-3,5-diyldi-4,1-phenylene)bis(1-acetyl-2-pyrrolidinecarboxamide)], for which the half-maximal effective concentration (EC50) is, setting by setting: under setting [1], 1000 to 10000 nM; (read-out: EC50 1b) 4550 nM. As for `CC(=O)N1CC=C[C@H]1C(=O)Nc1ccc(-c2cc(-c3ccc(NC(=O)[C@@H]4C=CCN4C(C)=O)cc3)[nH]n2)cc1` [OL-30, (2S,2′S)-N,N′-(1H-pyrazole-3,5-diyldi-4,1-phenylene)bis(1-acetyl-2,5-dihydro-1H-pyrrole-2-carboxamide)], the concentration for a half-maximal effect (EC50) under setting [1] fell in the range of 1000 to 10000 nM. As to `CC(C)C(=O)N1CCC[C@H]1C(=O)Nc1ccc(-c2cc(-c3ccc(NC(=O)[C@@H]4CCCN4C(=O)C(C)C)cc3)[nH]n2)cc1` [OL-31, (2S,2′S)-N,N′-(1H-pyrazole-3,5-diyldi-4,1-phenylene)bis(1-isobutyryl-2-pyrrolidinecarboxamide)], under setting [1], the half-maximal effective concentration (EC50) was in the range of 100 to 999 nM.

In the case of `CCC(=O)N1CCC[C@H]1C(=O)Nc1ccc(-c2cc(-c3ccc(NC(=O)[C@@H]4CCCN4C(=O)CC)cc3)[nH]n2)cc1` [OL-32, (2S,2′S)-N,N′-(1H-pyrazole-3,5-diyldi-4,1-phenylene)bis(1-propionyl-2-pyrrolidinecarboxamide)], the half-maximal effective concentration (EC50) under setting [1] lay in the range of 1000 to 10000 nM.

`O=C(Nc1ccc(-c2cc(-c3ccc(NC(=O)[C@@H]4CCCN4C(=O)C4CCC4)cc3)[nH]n2)cc1)[C@@H]1CCCN1C(=O)C1CCC1` [OL-33, (2S,2′S)-N,N′-(1H-pyrazole-3,5-diyldi-4,1-phenylene)bis(1-(cyclobutylcarbonyl)-2-pyrrolidinecarboxamide)]: the EC50 under setting [1] is 100 to 999 nM.

Regarding `O=C(Nc1ccc(-c2cc(-c3ccc(NC(=O)[C@@H]4CCCN4C(=O)c4ccncc4)cc3)[nH]n2)cc1)[C@@H]1CCCN1C(=O)c1ccncc1` [OL-34, (2S,2′S)-N,N′-(1H-pyrazole-3,5-diyldi-4,1-phenylene)bis(1-isonicotinoyl-2-pyrrolidinecarboxamide)], the EC50 under setting [1] was 1000 to 10000 nM. On to `O=C(Nc1ccc(-c2cc(-c3ccc(NC(=O)[C@@H]4CCCN4C(=O)C4CC4)cc3)[nH]n2)cc1)[C@@H]1CCCN1C(=O)C1CC1` [OL-35, (2S,2′S)-N,N′-(1H-pyrazole-3,5-diyldi-4,1-phenylene)bis(1-(cyclopropylcarbonyl)-2-pyrrolidinecarboxamide)], for which the concentration for a half-maximal effect (EC50) reads like this: under setting [1], 1000 to 10000 nM; (read-out: EC50 1b) 8250 nM. For the compound `CC(=O)N1CCC[C@H]1C(=O)Nc1ccc(-c2cc(-c3ccc(NC(=O)[C@@H]4CCCN4C(=O)Cc4ccccc4)cc3)n[nH]2)cc1` [OL-36, (2S)-1-acetyl-N-(4-(3-(4-((((2S)-1-(phenylacetyl)-2-pyrrolidinyl)carbonyl)amino)phenyl)-1H-pyrazol-5-yl)phenyl)-2-pyrrolidinecarboxamide], under setting [1], the EC50 is 100 to 999 nM.

Take `O=C(Nc1ccc(-c2cc(-c3ccc(NC(=O)[C@@H]4C=CCN4C(=O)C4CC4)cc3)[nH]n2)cc1)[C@@H]1C=CCN1C(=O)C1CC1` [OL-37, (2S,2′S)-N,N′-(1H-pyrazole-3,5-diyldi-4,1-phenylene)bis(1-(cyclopropylcarbonyl)-2,5-dihydro-1H-pyrrole-2-carboxamide)]: the EC50 under setting [1] was in the range of 1000 to 10000 nM. In the case of `O=C(Nc1ccc(-c2cc(-c3ccc(NC(=O)[C@@H]4C=CCN4C(=O)C4CCC4)cc3)[nH]n2)cc1)[C@@H]1C=CCN1C(=O)C1CCC1` [OL-38, (2S,2′S)-N,N′-(1H-pyrazole-3,5-diyldi-4,1-phenylene)bis(1-(cyclobutylcarbonyl)-2,5-dihydro-1H-pyrrole-2-carboxamide)], the EC50 is 1000 to 10000 nM under setting [1] and 10000 nM (read-out: EC50 1b). Consider `O=C(Nc1ccc(-c2cc(-c3ccc(NC(=O)[C@@H]4C=CCN4C(=O)CC4CCCC4)cc3)[nH]n2)cc1)[C@@H]1C=CCN1C(=O)CC1CCCC1` [OL-39, (2S,2′S)-N,N′-(1H-pyrazole-3,5-diyldi-4,1-phenylene)bis[1-(cyclopentylacetyl)-2,5-dihydro-1H-pyrrole-2-carboxamide]], for which the EC50 under setting [1] was in the range of 1000 to 10000 nM. As to `O=C(Nc1ccc(-c2cc(-c3ccc(NC(=O)[C@@H]4CCCN4C(=O)c4nc(Cl)cc5ccccc45)cc3)[nH]n2)cc1)[C@@H]1CCCN1C(=O)c1nc(Cl)cc2ccccc12` [OL-40, (2S,2′S)-N,N′-(1H-pyrazole-3,5-diyldi-4,1-phenylene)bis(1-((3-chloro-1-isoquinolinyl)carbonyl)-2-pyrrolidinecarboxamide)], the 50% effective concentration (EC50) under setting [1] lay within 4.57 to 99 nM.

`COc1cccc2c(C(=O)N3CCC[C@H]3C(=O)Nc3ccc(-c4cc(-c5ccc(NC(=O)[C@@H]6CCCN6C(=O)c6nc(Cl)cc7c(OC)cccc67)cc5)[nH]n4)cc3)nc(Cl)cc12` [OL-41, (2S,2′S)-N,N′-(1H-pyrazole-3,5-diyldi-4,1-phenylene)bis(1-((3-chloro-5-methoxy-1-isoquinolinyl)carbonyl)-2-pyrrolidinecarboxamide)]: under setting [1], the EC50 lay within 4.57 to 99 nM. Consider `CC(=O)N[C@@H](C(=O)N1CCCC1C(=O)Nc1ccc(-c2cc(-c3ccc(NC(=O)C4CCCN4C(=O)[C@H](NC(C)=O)c4ccccc4)cc3)[nH]n2)cc1)c1ccccc1` (stereo partly drawn) [OL-42, N,N′-(1H-pyrazole-3,5-diyldi-4,1-phenylene)bis(1-((2R)-2-acetamido-2-phenylacetyl)-2-pyrrolidinecarboxamide)], for which the half-maximal effective concentration (EC50) under setting [1] was below 4.57 nM. For `C[C@H](NC(=O)[C@H](O)c1ccccc1)C(=O)Nc1ccc(-c2cc(-c3ccc(NC(=O)[C@@H](C)NC(=O)[C@H](O)c4ccccc4)cc3)[nH]n2)cc1` [OL-44, (S)-2-((R)-2-hydroxy-2-phenylacetamido)-N-(4-(5-(4-((R)-2-((R)-2-hydroxy-2-phenylacetamido)propanamido)phenyl)-1H-pyrazol-3-yl)phenyl)propanamide], the EC50 under setting [1] was below 4.57 nM. On to `C[C@H](NC(=O)[C@@](C)(O)c1ccccc1)C(=O)Nc1ccc(-c2cc(-c3ccc(NC(=O)[C@H](C)NC(=O)[C@@](C)(O)c4ccccc4)cc3)[nH]n2)cc1` [OL-45, (2S,2′S)-N,N′-(1H-pyrazole-3,5-diylbis(4,1-phenyleneimino((2S)-1-oxo-1,2-propanediyl)))bis(2-hydroxy-2-phenylpropanamide)], for which the 50% effective concentration (EC50) under setting [1] was below 4.57 nM.
